Results: patent US8017612B2, “Piperazine compound and use thereof as a HCV polymerase inhibitor” (priority 2006, dated 2011)
Counter-ions that a name gives are not always drawn.

Experiments:
[1] = molecular target: T1, HCV polymerase (NS5B) type 1b (Hepatitis C virus genotype 1b, UniProt P26663); assay: Assay of enzyme (HCV polymerase) inhibitory activity, type 1b enzyme; type: biochemical, HCV BK strain (type 1b); conditions: HCV polymerase inhibitory activity (IC50), 1b, type 1b enzyme 0.5 μg/ml, 25° C., 60 min
T1 construct: a region encoding NS5B (J Virol 1991 March, 65(3), 1105-13, 544 amino acids after deletion of 47 amino acids on the C-terminal); 6xHis (C); made in house; host or cells: Escherichia coli
Summary of the method: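 IC50 derived from [3H]UTP incorporation into TCA-insoluble RNA, compared with and without test compound. Reaction (25 °C, 60 min, Tris pH 7.5, 5 mM MgCl2): E. coli-expressed 1b NS5B Δ47 with His tag at 0.5 μg/ml, 5 μg/ml run-off substrate RNA, ATP/GTP/CTP 50 μM, UTP 2 μM.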

[2] = molecular target: T2, HCV polymerase (NS5B) type 1a (Hepatitis C virus genotype 1a, UniProt P26664); assay: Assay of enzyme (HCV polymerase) inhibitory activity, type 1a enzyme; type: biochemical, HCV type 1a (cloned from the blood of patients); conditions: HCV polymerase inhibitory activity (IC50), 1a, type 1a enzyme 1.5 μg/ml, 25° C., 60 min
T2 construct: made in house; host or cells: Escherichia coli (by the 'similar method' of the 1b enzyme)
Summary of the method: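 Reactions ran 60 min at 25° C in 20 mM Tris-HCl pH 7.5, 5 mM MgCl2, 50 mM NaCl, holding genotype 1a NS5B (1.5 μg/ml, Δ47 C-terminus, 6His), substrate RNA 5 μg/ml, UTP 2 μM with tritiated UTP and other NTPs 50 μM. IC50 derived from incorporated radiolabel in filter-trapped RNA relative to uninhibited reaction.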

SMILES	IC50 [1]	IC50 [2]
CC(=O)N1CCN(S(=O)(=O)c2ccc(C(C)C)cc2)[C@@H](C(=O)NCc2ccc(Br)cc2Cl)C1 [Example 182, (R)-4-acetyl-1-(4-isopropyl-benzenesulfonyl)-piperazine-2-carboxylic acid 4-bromo-2-chloro-benzylamide]	100 to 1000 nM	100 to 1000 nM
CC(=O)N1CCN(S(=O)(=O)c2ccc(C(C)C)cc2)[C@@H](C(=O)NCc2ccc(C(C)C)cc2Cl)C1 [Example 183, (R)-4-acetyl-1-(4-isopropyl-benzenesulfonyl)-piperazine-2-carboxylic acid 2-chloro-4-isopropyl-benzylamide]	100 to 1000 nM	100 to 1000 nM
Cc1csc(N2CCN(S(=O)(=O)c3ccc(C(F)(F)F)cc3)[C@@H](C(=O)NCc3ccc(C(C)C)cc3)C2)n1 [Example 184, (R)-4-(4-methyl-thiazol-2-yl)-1-(4-trifluoromethyl-benzenesulfonyl)-piperazine-2-carboxylic acid 4-isopropyl-benzylamide]	100 to 1000 nM	100 to 1000 nM
CC(=O)NCC(=O)N1CCN(S(=O)(=O)c2ccc(C(F)(F)F)cc2)[C@@H](C(=O)NCc2ccc(C(C)C)cc2)C1 [Example 185, (R)-4-(2-acetylamino-acetyl)-1-(4-trifluoromethyl-benzenesulfonyl)-piperazine-2-carboxylic acid 4-isopropyl-benzylamide]	100 to 1000 nM	> 1000 nM
CC(C)c1ccc(CNC(=O)[C@H]2CN(C(=O)CCNC(=O)OC(C)(C)C)CCN2S(=O)(=O)c2ccc(C(F)(F)F)cc2)cc1 [Example 186, {3-[(R)-3-(4-isopropyl-benzylcarbamoyl)-4-(4-trifluoromethyl-benzenesulfonyl)-piperazin-1-yl]-3-oxo-propyl}-carbamic acid tert-butyl ester]	100 to 1000 nM	> 1000 nM
CC(C)c1ccc(CNC(=O)[C@H]2CN(C(=O)CCC(=O)O)CCN2S(=O)(=O)c2ccc(C(F)(F)F)cc2)cc1 [Example 187, 4-[(R)-3-(4-isopropyl-benzylcarbamoyl)-4-(4-trifluoromethyl-benzenesulfonyl)-piperazin-1-yl]-4-oxo-butyric acid]	> 1000 nM	> 1000 nM
CC(=O)NCCC(=O)N1CCN(S(=O)(=O)c2ccc(C(F)(F)F)cc2)[C@@H](C(=O)NCc2ccc(C(C)C)cc2)C1 [Example 188, (R)-4-(3-acetylamino-propionyl)-1-(4-trifluoromethyl-benzenesulfonyl)-piperazine-2-carboxylic acid 4-isopropyl-benzylamide]	100 to 1000 nM	100 to 1000 nM
CC(C)c1ccc(CNC(=O)[C@H]2CN(C(=O)CCN)CCN2S(=O)(=O)c2ccc(C(F)(F)F)cc2)cc1 [Example 189, (R)-4-(3-amino-propionyl)-1-(4-trifluoromethyl-benzenesulfonyl)-piperazine-2-carboxylic acid 4-isopropyl-benzylamide hydrochloride]	> 1000 nM	> 1000 nM
CC(C)c1ccc(CNC(=O)[C@H]2CN(C(=O)CCCC(=O)O)CCN2S(=O)(=O)c2ccc(C(F)(F)F)cc2)cc1 [Example 190, 5-[(R)-3-(4-isopropyl-benzylcarbamoyl)-4-(4-trifluoromethyl-benzenesulfonyl)-piperazin-1-yl]-5-oxo-pentanoic acid]	100 to 1000 nM	> 1000 nM
CC(C)c1ccc(CNC(=O)[C@H]2CN(c3nc4ccccc4s3)CCN2S(=O)(=O)c2ccc(C(F)(F)F)cc2)cc1 [Example 191, (R)-4-benzothiazol-2-yl-1-(4-trifluoromethyl-benzenesulfonyl)-piperazine-2-carboxylic acid 4-isopropyl-benzylamide]	100 to 1000 nM	100 to 1000 nM
CCOc1ccc(S(=O)(=O)N2CCN(C(C)=O)C[C@@H]2C(=O)NCc2ccc(C(C)C)cc2)cc1 [Example 192, (R)-4-acetyl-1-(4-ethoxy-benzenesulfonyl)-piperazine-2-carboxylic acid 4-isopropyl-benzylamide]	100 to 1000 nM	100 to 1000 nM
CCCOc1ccc(S(=O)(=O)N2CCN(C(C)=O)C[C@@H]2C(=O)NCc2ccc(C(C)C)cc2)cc1 [Example 193, (R)-4-acetyl-1-(4-propoxy-benzenesulfonyl)-piperazine-2-carboxylic acid 4-isopropyl-benzylamide]	100 to 1000 nM	100 to 1000 nM
CC(=O)N1CCN(S(=O)(=O)c2ccc(CC(C)C)cc2)[C@@H](C(=O)NCc2ccc(C(C)C)cc2)C1 [Example 194, (R)-4-acetyl-1-(4-isobutyl-benzenesulfonyl)-piperazine-2-carboxylic acid 4-isopropyl-benzylamide]	< 100 nM	< 100 nM
CC(C)c1ccc(CNC(=O)[C@H]2CN(C(=O)Cc3c[nH]cn3)CCN2S(=O)(=O)c2ccc(C(F)(F)F)cc2)cc1 [Example 195, (R)-4-(2-1H-imidazol-4-yl-acetyl)-1-(4-trifluoromethyl-benzenesulfonyl)-piperazine-2-carboxylic acid 4-isopropyl-benzylamide]	100 to 1000 nM	100 to 1000 nM
CC(=O)N1CCN(S(=O)(=O)C2CCCCC2)C(C(=O)NCc2ccc(C(F)(F)F)cc2)C1 (stereo not shown) [Example 196, 4-acetyl-1-cyclohexanesulfonyl-piperazine-2-carboxylic acid 4-trifluoromethyl-benzylamide]	> 1000 nM	> 1000 nM
COc1ccc(CNC(=O)C2CN(C(C)=O)CCN2S(=O)(=O)c2ccc(C(C)C)cc2)c(OC)c1 (stereo not shown) [Example 197, 4-acetyl-1-(4-isopropyl-benzenesulfonyl)-piperazine-2-carboxylic acid 2,4-dimethoxy-benzylamide]	> 1000 nM	> 1000 nM
COc1ccc(CNC(=O)C2CN(C(C)=O)CCN2S(=O)(=O)c2ccc(C(C)C)cc2)cc1OC (stereo not shown) [Example 198, 4-acetyl-1-(4-isopropyl-benzenesulfonyl)-piperazine-2-carboxylic acid 3,4-dimethoxy-benzylamide]	> 1000 nM	> 1000 nM
CC(C)c1ccc(CNC(=O)[C@H]2CN(C(=O)NCCCC(=O)O)CCN2S(=O)(=O)c2ccc(C(F)(F)F)cc2)cc1 [Example 199, 4-{[(R)-3-(4-isopropyl-benzylcarbamoyl)-4-(4-trifluoromethyl-benzenesulfonyl)-piperazine-1-carbonyl]-amino}-butyric acid]	100 to 1000 nM	> 1000 nM
CC(C)c1ccc(CNC(=O)[C@H]2CN(C(=O)Nc3ccc(N(C)C)cc3)CCN2S(=O)(=O)c2ccc(C(F)(F)F)cc2)cc1 [Example 200, (R)-4-(4-trifluoromethyl-benzenesulfonyl)-piperazine-1,3-dicarboxylic acid 1-[(4-dimethylamino-phenyl)-amide] 3-(4-isopropyl-benzylamide)]	100 to 1000 nM	> 1000 nM
CC(C)c1ccc(CNC(=O)[C@H]2CN(C(=O)c3ccncc3)CCN2S(=O)(=O)c2ccc(C(F)(F)F)cc2)cc1 [Example 201, (R)-4-(pyridine-4-carbonyl)-1-(4-trifluoromethyl-benzenesulfonyl)-piperazine-2-carboxylic acid 4-isopropyl-benzylamide]	> 1000 nM	> 1000 nM
CCCN(C)c1ccc(CNC(=O)C2CN(C(C)=O)CCN2S(=O)(=O)c2ccc(C(C)C)cc2)cc1 (stereo not shown) [Example 202, 4-acetyl-1-(4-isopropyl-benzenesulfonyl)-piperazine-2-carboxylic acid 4-(methyl-propyl-amino)-benzylamide]	100 to 1000 nM	> 1000 nM
CC(=O)N1CCN(S(=O)(=O)c2ccc3c(c2)CCCC3)[C@@H](C(=O)NCc2ccc(C(C)C)cc2)C1 [Example 203, (R)-4-acetyl-1-(5,6,7,8-tetrahydro-naphthalene-2-sulfonyl)-piperazine-2-carboxylic acid 4-isopropyl-benzylamide]	< 100 nM	100 to 1000 nM
CC(=O)N1CCN(S(=O)(=O)c2ccc3c(c2)CCC3)[C@@H](C(=O)NCc2ccc(C(C)C)cc2)C1 [Example 204, (R)-4-acetyl-1-(indane-5-sulfonyl)-piperazine-2-carboxylic acid 4-isopropyl-benzylamide]	100 to 1000 nM	100 to 1000 nM
CCCc1ccc(S(=O)(=O)N2CCN(C(C)=O)C[C@@H]2C(=O)NCc2ccc(C(C)C)cc2)cc1 [Example 205, (R)-4-acetyl-1-(4-propyl-benzenesulfonyl)-piperazine-2-carboxylic acid 4-isopropyl-benzylamide]	< 100 nM	< 100 nM
CC(=O)N1CCN(S(=O)(=O)c2ccc(-c3ccccc3)cc2)[C@@H](C(=O)NCc2ccc(C(C)C)cc2)C1 [Example 206, (R)-4-acetyl-1-(biphenyl-4-sulfonyl)-piperazine-2-carboxylic acid 4-isopropyl-benzylamide]	100 to 1000 nM	100 to 1000 nM
CC(=O)N1CCN(S(=O)(=O)c2ccc(OC(F)(F)F)cc2)[C@@H](C(=O)NCc2ccc(C(C)C)cc2)C1 [Example 207, (R)-4-acetyl-1-(4-trifluoromethoxy-benzenesulfonyl)-piperazine-2-carboxylic acid 4-isopropyl-benzylamide]	< 100 nM	< 100 nM
